In ChEMBL document CHEMBL1821660, “Synthesis and biological activity of a novel class nicotinic acetylcholine receptors (nAChRs) ligands structurally related to anatoxin-a” (Bioorg Med Chem Lett, 2011):

Tests used:
[1] = Displacement of [3H]-cytisine from nAChR in rat brain membranes; format: cell membranes
[2] = biological target: Acetylcholine receptor subunit alpha (Homo sapiens, UniProt P02708); assay: Binding affinity to alpha1 nAchR expressed in human TE671 cells; format: cell-based, TE-671
[3] = biological target: Neuronal acetylcholine receptor; alpha3/beta4 (Homo sapiens, UniProt P30926+P32297); assay: Displacement of [3H]-epibatidine from alpha3beta4 nAChR expressed in human IMR32 cells after 2 hrs by scintillation counting; format: cell-based, IMR-32
[4] = biological target: Neuronal acetylcholine receptor subunit alpha-7 (Homo sapiens, UniProt P36544); assay: Displacement of [125I]-alpha-bungarotoxin from alpha7 nAchR expressed in rat GH4C1 cells; format: cell-based, GH4-C1
Sequence of Neuronal acetylcholine receptor subunit alpha-7 (P36544 whole entry): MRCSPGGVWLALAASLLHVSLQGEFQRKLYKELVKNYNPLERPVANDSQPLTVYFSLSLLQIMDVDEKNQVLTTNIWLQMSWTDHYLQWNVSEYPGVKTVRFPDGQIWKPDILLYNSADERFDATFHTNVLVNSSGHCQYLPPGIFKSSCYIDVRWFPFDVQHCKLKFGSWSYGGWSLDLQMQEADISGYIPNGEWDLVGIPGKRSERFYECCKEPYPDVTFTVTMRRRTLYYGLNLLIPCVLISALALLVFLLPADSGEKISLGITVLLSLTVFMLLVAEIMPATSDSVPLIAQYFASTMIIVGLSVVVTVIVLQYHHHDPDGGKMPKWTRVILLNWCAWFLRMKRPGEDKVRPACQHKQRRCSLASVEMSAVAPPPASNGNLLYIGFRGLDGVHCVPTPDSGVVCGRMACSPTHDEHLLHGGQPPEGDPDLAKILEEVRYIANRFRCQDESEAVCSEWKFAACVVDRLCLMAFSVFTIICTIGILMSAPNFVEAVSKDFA

Sequence of Neuronal acetylcholine receptor; alpha3/beta4 (P30926 whole entry): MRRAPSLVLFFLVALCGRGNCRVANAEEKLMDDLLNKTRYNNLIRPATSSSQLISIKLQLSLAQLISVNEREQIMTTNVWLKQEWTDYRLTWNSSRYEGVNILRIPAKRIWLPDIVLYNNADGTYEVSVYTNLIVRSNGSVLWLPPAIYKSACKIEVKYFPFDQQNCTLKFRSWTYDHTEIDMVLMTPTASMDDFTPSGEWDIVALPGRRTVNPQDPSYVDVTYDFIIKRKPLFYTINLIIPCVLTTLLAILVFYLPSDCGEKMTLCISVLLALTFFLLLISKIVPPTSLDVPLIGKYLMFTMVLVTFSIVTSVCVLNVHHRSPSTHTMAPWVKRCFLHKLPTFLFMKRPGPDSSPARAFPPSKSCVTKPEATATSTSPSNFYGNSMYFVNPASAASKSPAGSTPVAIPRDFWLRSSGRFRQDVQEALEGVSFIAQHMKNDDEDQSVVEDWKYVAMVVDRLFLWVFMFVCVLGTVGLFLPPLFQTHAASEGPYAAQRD
Sequence of Neuronal acetylcholine receptor; alpha3/beta4 (P32297 whole entry): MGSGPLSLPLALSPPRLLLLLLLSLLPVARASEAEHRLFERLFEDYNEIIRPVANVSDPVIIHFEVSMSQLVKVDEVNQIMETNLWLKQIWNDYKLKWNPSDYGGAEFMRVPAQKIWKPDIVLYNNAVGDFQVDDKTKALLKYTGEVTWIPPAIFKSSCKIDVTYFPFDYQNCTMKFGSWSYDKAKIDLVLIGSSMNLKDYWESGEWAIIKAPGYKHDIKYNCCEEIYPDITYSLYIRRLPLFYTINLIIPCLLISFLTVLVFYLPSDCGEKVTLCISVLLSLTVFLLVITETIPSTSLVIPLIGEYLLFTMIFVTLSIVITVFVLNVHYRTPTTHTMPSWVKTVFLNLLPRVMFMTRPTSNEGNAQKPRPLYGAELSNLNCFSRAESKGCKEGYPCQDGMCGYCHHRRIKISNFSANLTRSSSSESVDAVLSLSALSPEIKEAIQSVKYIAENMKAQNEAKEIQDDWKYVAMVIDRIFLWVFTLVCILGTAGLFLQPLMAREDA
Sequence of Acetylcholine receptor subunit alpha (P02708 whole entry): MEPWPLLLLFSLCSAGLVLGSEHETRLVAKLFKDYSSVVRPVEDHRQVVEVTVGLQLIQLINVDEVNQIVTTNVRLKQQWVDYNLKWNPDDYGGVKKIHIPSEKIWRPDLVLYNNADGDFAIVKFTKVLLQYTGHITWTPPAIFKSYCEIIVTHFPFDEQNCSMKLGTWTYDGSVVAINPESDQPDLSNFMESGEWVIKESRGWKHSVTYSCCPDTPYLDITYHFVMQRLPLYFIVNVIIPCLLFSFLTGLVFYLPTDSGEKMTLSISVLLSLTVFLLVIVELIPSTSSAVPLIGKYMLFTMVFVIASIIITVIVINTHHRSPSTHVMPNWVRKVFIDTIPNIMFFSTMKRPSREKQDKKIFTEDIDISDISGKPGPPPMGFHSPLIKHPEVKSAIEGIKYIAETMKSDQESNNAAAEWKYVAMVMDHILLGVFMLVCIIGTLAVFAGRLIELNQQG

Row | SMILES | IC50 [1] | IC50 [2] | IC50 [3] | IC50 [4]
1 | CN1CCC[C@H]1c1cccnc1 [NICOTINE] | 0.0047 µM | – | – | –
2 | CCc1cc(C2=CCC[C@@H]3CC[C@H]2N3)on1 (racemic) | 0.0122 µM | 4.2 µM | 1.8 µM | 4.6 µM
3 | Cc1cc([C@]2(O)CCC[C@@H]3CC[C@H]2N3)on1 (racemic) | > 10 µM | > 10 µM | > 10 µM | > 10 µM
4 | Cc1noc2c1[C@H]1CC[C@@H](CC2)N1 (racemic) | > 10 µM | > 10 µM | > 10 µM | > 10 µM
5 | CC(C)c1cc(C2=CCC[C@@H]3CC[C@H]2N3)on1 (racemic) | 2.1 µM | 5.5 µM | 2.9 µM | 15.1 µM
6 | CCOC(=O)c1cc(C2=CCC[C@@H]3CC[C@H]2N3)on1 (racemic) | > 10 µM | > 10 µM | > 10 µM | > 10 µM
7 | C1=C(c2cc(-c3ccccc3)no2)[C@H]2CC[C@@H](CC1)N2 (racemic) | > 10 µM | 7.8 µM | 1.05 µM | > 10 µM
8 | CCOC(=O)c1noc2c1[C@H]1CC[C@@H](CC2)N1 (racemic) | > 10 µM | > 10 µM | > 10 µM | > 10 µM
9 | Cc1cc(C2=CCC[C@@H]3CC[C@H]2N3)on1 (racemic) | 0.0091 µM | – | > 10 µM | > 10 µM
10 | Cc1cc([C@@]2(O)CCC[C@@H]3CC[C@H]2N3)on1 (racemic) | > 10 µM | > 10 µM | > 10 µM | > 10 µM
